Converted amounts (≈) assume the structure as drawn. Values belong to the compound of their own block, whether it stands above or below them.
Assays:
Experiment in all cases: ≥ marks a high value that may be exact or a test limit, other limits are often not marked, values filed in µg/mL are converted to µM
Acinetobacter baumannii = system: Acinetobacter baumannii
[1] = system: Bacillus cereus ATCC 11778
[2] = system: Enterococcus faecalis ATCC 29212
[3] = system: Escherichia coli ATCC 25922
Escherichia coli O157:H7 = system: Escherichia coli O157:H7
[4] = system: Listeria monocytogenes 10403s
[5] = system: Pseudomonas aeruginosa ATCC 27853
[6] = system: Salmonella enterica subsp. enterica serovar Typhimurium ATCC 13311
[7] = system: Shigella sonnei ATCC 11060
[8] = system: Staphylococcus aureus ATCC 25923
[9] = system: Staphylococcus epidermidis ATCC 12228
Vibrio cholerae O1 Inaba = system: Vibrio cholerae O1 Inaba
[10] = system: Acinetobacter baumannii ATCC 7978
[11] = system: Candida albicans ATCC 10231
[12] = system: Enterococcus faecium E007
[13] = system: Klebsiella pneumoniae WGLW2
[14] = system: Staphylococcus aureus ATCC 29231
[15] = system: Staphylococcus aureus MW2
Escherichia coli W3110 = system: Escherichia coli W3110
[16] = system: Klebsiella pneumoniae ATCC BAA-1705
Escherichia coli TOP 10 = system: Escherichia coli TOP 10
[17] = system: Acinetobacter baumannii ATCC 19606
[18] = system: Bacillus megaterium ATCC 13632
[19] = system: Bacillus subtilis ATCC 6051
[20] = system: Candida albicans ATCC 90028
[21] = system: Candida tropicalis ATCC 750
[22] = system: Cryptococcus neoformans ATCC 208821
[23] = system: Enterococcus faecium ATCC 35667
[24] = system: Klebsiella pneumoniae ATCC 700603
[25] = system: Staphylococcus aureus ATCC 29213
[26] = system: Staphylococcus aureus ATCC 43300
[27] = system: Staphylococcus aureus VRSA1
[28] = system: Streptococcus pneumoniae ATCC 700677
Candida krusei ATCC 6258 = system: Candida krusei ATCC 6258
[29] = system: Escherichia coli ATCC 12795
[30] = system: Klebsiella pneumoniae ATCC 10031
[31] = system: Mannheimia haemolytica 82-25
[32] = system: Pseudomonas aeruginosa ATCC 27312
[33] = system: Serratia marcescens ATCC 14756
Escherichia coli BL21 = system: Escherichia coli BL21
[34] = system: Pseudomonas aeruginosa PAO1
[35] = system: Streptococcus pyogenes M1T1 5448
[36] = system: Klebsiella aerogenes ATCC 13048
[37] = system: Pseudomonas aeruginosa PA14

Structure (SMILES): CC(C)C[C@H](NC(=O)[C@@H](N)CCCN=C(N)N)C(=O)N[C@@H](Cc1ccccc1)C(=O)N[C@@H](CCCN=C(N)N)C(=O)N[C@@H](CCCN=C(N)N)C(=O)N[C@H](C(=O)N[C@@H](CCCCN)C(=O)N[C@@H](CCCCN)C(=O)N[C@H](C(=O)N[C@@H](C)C(=O)NCC(N)=O)C(C)C)C(C)C [RLFRRVKKVAG]
MIC (Acinetobacter baumannii): ≥ 188 µM
MIC [1]: ≥ 188 µM
MIC [2]: > 188 µM
MIC [3]: > 188 µM
MIC (Escherichia coli O157:H7): ≥ 188 µM
MIC [4]: ≥ 188 µM
MIC [5]: > 188 µM
MIC [6]: ≥ 188 µM
MIC [7]: ≥ 188 µM
MIC [8]: > 188 µM
MIC [9]: > 188 µM
MIC (Vibrio cholerae O1 Inaba): ≥ 188 µM

Structure (SMILES): CC[C@H](C)[C@H](NC(=O)[C@H](CCCCN)NC(=O)[C@H](Cc1c[nH]c2ccccc12)NC(=O)[C@@H](N)CC(C)C)C(=O)NCC(=O)N[C@@H](Cc1c[nH]c2ccccc12)C(=O)N[C@@H](CCCCN)C(=O)N[C@H](C(=O)N[C@@H](Cc1c[nH]c2ccccc12)C(=O)N[C@@H](CCCN=C(N)N)C(=O)N[C@H](C(=O)NCC(=O)O)C(C)C)[C@@H](C)CC [LWKIGWKIWRVG]
MIC [10]: 20.8 µM (≈ 32 µg/mL)
MIC [11]: 83 µM (≈ 128 µg/mL)
MIC [12]: ≥ 83 µM
MIC [13]: ≥ 41.5 µM
MIC [14]: ≥ 41.5 µM
MIC [15]: ≥ 41.5 µM

Structure (SMILES): CC(C)C[C@H](NC(=O)[C@@H](N)[C@@H](C)O)C(=O)N1CCC[C@H]1C(=O)N[C@@H](CCC(=O)O)C(=O)N[C@@H](Cc1c[nH]c2ccccc12)C(=O)N[C@@H](CC(=O)O)C(=O)N[C@@H](CC(=O)O)C(=O)N[C@@H](CCCN=C(N)N)C(=O)N[C@@H](CCCN=C(N)N)C(=O)N[C@H](C(=O)N[C@H](C(=O)N[C@@H](CC(N)=O)C(=O)N[C@@H](CO)C(N)=O)C(C)C)C(C)C [TLPEWDDRRVVNS]
MIC (Escherichia coli TOP 10): ≥ 63 µM

Structure (SMILES): CC[C@H](C)[C@H](N)C(=O)N[C@@H](Cc1ccccc1)C(=O)NCC(=O)N[C@H](C(=O)N[C@H](C(=O)N[C@@H](CC(C)C)C(=O)NCC(=O)N[C@@H](Cc1ccccc1)C(=O)N[C@@H](CC(C)C)C(=O)N[C@@H](CCCCN)C(=O)NCC(=O)N[C@@H](CC(C)C)C(N)=O)[C@@H](C)CC)[C@@H](C)O [IFGTILGFLKGL]
MIC [17]: 100 µM (≈ 128 µg/mL)
MIC [18]: 12.5 µM (≈ 16 µg/mL)
MIC [19]: 25 µM (≈ 32 µg/mL)
MIC [20]: ≥ 100 µM
MIC [21]: 25 µM (≈ 32 µg/mL)
MIC [22]: 25 µM (≈ 32 µg/mL)
MIC [23]: 25 µM (≈ 32 µg/mL)
MIC [3]: 100 µM (≈ 128 µg/mL)
MIC [24]: 200 µM (≈ 256 µg/mL)
MIC [5]: > 200 µM
MIC [25]: 12.5 µM (≈ 16 µg/mL)
MIC [26]: 12.5 µM (≈ 16 µg/mL)
MIC [27]: 12.5 µM (≈ 16 µg/mL)
MIC [28]: 25 µM (≈ 32 µg/mL)

Structure (SMILES): CC(C)[C@H](N)C(=O)N[C@@H](CC(=O)O)C(=O)N[C@@H](CC(=O)O)C(=O)N[C@@H](CC(=O)O)C(=O)N[C@@H](CC(=O)O)C(=O)N[C@@H](CCCCN)C(=O)O [VDDDDK]
MIC (Candida krusei ATCC 6258): ≥ 2770 µM
MIC [2]: 2670 µM (≈ 1880 µg/mL)
MIC [29]: ≥ 900 µM
MIC [30]: ≥ 850 µM
MIC [31]: ≥ 160 µM
MIC [32]: ≥ 1500 µM
MIC [33]: ≥ 3000 µM
MIC [25]: 1080 µM (≈ 762 µg/mL)

Now from value to compound:

MIC (Escherichia coli W3110): 8 µM (≈ 18.7 µg/mL)
MIC [16]: ≥ 64 µM
Structure (SMILES): CC[C@H](C)[C@H](NC(=O)[C@H](CCCN=C(N)N)NC(=O)[C@H](CCCN=C(N)N)NC(=O)[C@H](Cc1ccc(O)cc1)NC(=O)[C@H](CCCN=C(N)N)NC(=O)[C@H](CC(C)C)NC(=O)[C@H](CC(C)C)NC(=O)[C@H](CCCCN)NC(=O)[C@H](CC(C)C)NC(=O)CNC(=O)[C@H](Cc1c[nH]c2ccccc12)NC(=O)[C@H](CS)NC(=O)[C@H](C)NC(=O)[C@H](Cc1c[nH]c2ccccc12)NC(=O)[C@H](CCCN=C(N)N)NC(=O)[C@@H](N)Cc1c[nH]c2ccccc12)C(=O)N[C@@H](Cc1ccc(O)cc1)C(=O)O [WRWACWGLKLLRYRRIY]

MIC (Escherichia coli BL21): 1 µM (≈ 2.96 µg/mL)
MIC [34]: 32 µM (≈ 94.6 µg/mL)
MIC [35]: 0.5 µM (≈ 1.48 µg/mL)
Structure (SMILES): CC[C@H](C)[C@H](NC(=O)[C@H](CCCCN)NC(=O)[C@H](C)NC(=O)[C@H](CCCN=C(N)N)NC(=O)[C@H](CCCCN)NC(=O)CNC(=O)[C@H](CCCCN)NC(=O)[C@H](CCC(=O)O)NC(=O)[C@H](CCC(N)=O)NC(=O)[C@@H](NC(=O)[C@H](CCCCN)NC(=O)[C@H](CCCCN)NC(=O)[C@H](CCCCN)NC(=O)[C@H](CC(C)C)NC(=O)[C@H](CCCN=C(N)N)NC(=O)[C@H](CCC(N)=O)NC(=O)[C@H](Cc1ccccc1)NC(=O)[C@@H](NC(=O)[C@@H](NC(=O)[C@H](CCC(=O)O)NC(=O)[C@H](CCCCN)NC(=O)CNC(=O)[C@H](C)N)[C@@H](C)O)[C@@H](C)CC)[C@@H](C)CC)C(=O)N[C@@H](C)C(=O)N[C@@H](Cc1c[nH]c2ccccc12)C(=O)O [AGKETIFQRLKKKIQEKGKRAKIAW]

MIC [10]: 27.5 µM (≈ 64 µg/mL)
MIC [12]: ≥ 55 µM
MIC [36]: 13.8 µM (≈ 32 µg/mL)
MIC [37]: 13.8 µM (≈ 32 µg/mL)
MIC [14]: 3.44 µM (≈ 8 µg/mL)
Structure (SMILES): CC[C@H](C)[C@H](NC(=O)[C@H](CCCCN)NC(=O)[C@H](CCCCN)NC(=O)[C@H](Cc1c[nH]c2ccccc12)NC(=O)[C@@H](NC(=O)[C@H](CCCCN)NC(=O)[C@H](Cc1c[nH]c2ccccc12)NC(=O)[C@@H](N)CC(C)C)[C@@H](C)CC)C(=O)N[C@@H](Cc1c[nH]c2ccccc12)C(=O)N[C@@H](CCCN=C(N)N)C(=O)N[C@H](C(=O)N[C@@H](Cc1c[nH]c2ccccc12)C(=O)N[C@@H](CCCCN)C(=O)N[C@@H](CC(N)=O)C(=O)N[C@@H](Cc1c[nH]c2ccccc12)C(=O)N[C@@H](CCCN=C(N)N)C(=O)O)C(C)C [LWKIWKKIWRVWKNWR]
